In patent publication US8815909B2, “Diaminocyclohexane compounds and uses thereof” (Bristol-Myers Squibb Company, priority 2011, dated 2014):
Structures can show the parent of a compound that is named as a salt. Where two headings read alike, the source gives them in different places.

Target: T1, human Y4 receptor (Homo sapiens, UniProt P50391)
T1 construct: expressed in transfected cells
Test: NPY4 cAMP HTRF Agonist Assay (inhibitory cAMP assay, Gi activation by Y4 agonism)
Type: cell-based
Procedure, shortened: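 Y4 agonism read as lowered forskolin-stimulated cAMP (HTRF, 1 h detection at room temperature). Stable human Y4 CHO clone, 5000 cells/well, incubated 30 min at room temperature with compounds plus forskolin and IBMX in PBS.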

[1] = human Y4 stable CHO clonal cells, forskolin + IBMX, read-out: NPY4 cAMP HTRF Agonist Assay EC50
[2] = second TABLE 1, R2 is Phenyl-CF3, read-out: hY4 CAMP EC50

T1 sequence (P50391 whole entry): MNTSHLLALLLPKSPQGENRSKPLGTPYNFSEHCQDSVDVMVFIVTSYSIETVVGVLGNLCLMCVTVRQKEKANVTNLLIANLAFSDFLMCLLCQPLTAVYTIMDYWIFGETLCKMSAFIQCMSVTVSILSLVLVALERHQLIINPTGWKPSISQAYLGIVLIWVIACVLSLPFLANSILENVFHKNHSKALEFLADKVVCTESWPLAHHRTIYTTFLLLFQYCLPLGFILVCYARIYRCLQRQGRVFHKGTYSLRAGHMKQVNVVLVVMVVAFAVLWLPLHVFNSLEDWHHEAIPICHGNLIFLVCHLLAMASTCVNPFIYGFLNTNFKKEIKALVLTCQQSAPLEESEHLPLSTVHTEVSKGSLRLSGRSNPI

`CNC(=O)c1cccc(-c2cnc(N[C@@H]3CCCC[C@H]3N[C@H]3CCCN(c4ccc(C(F)(F)F)cc4)C3)o2)c1` [Example 105, N-Methyl (3-(2-((1R,2R)-2((S)-1-(4-trifluoromethyl)phenyl)piperidin-3-ylamino)cyclohexylamino)oxazol-5-yl)benzamide] was tested, and the EC50 [1] was 0.0002 µM.
In the case of `C[C@]1(N[C@@H]2CCCC[C@H]2Nc2ncc(-c3cccc(C(N)=O)c3)o2)CCCN(c2ccc(C(F)(F)F)cc2)C1` [Example 106, 3-(2-(((1R,2R)-2-(((S)-3-Methyl-1-(4-(trifluoromethyl)phenyl)piperidin-3-yl)amino)cyclohexyl)amino)oxazol-5-yl)benzamide], the EC50 [1] is reported as 0.0003 µM.
For `CCOC(=O)Nc1cccc(-c2cnc(N[C@@H]3CCCC[C@H]3N[C@H]3CCCN(c4cnc(C(F)(F)F)nc4)C3)o2)c1` [Example 107, Ethyl (3-(2-(((1R,2R)-2-(((S)-1-(2-(trifluoromethyl)pyrimidin-5-yl)piperidin-3-yl)amino)cyclohexyl)amino)oxazol-5-yl)phenyl)carbamate], the EC50 [1] was 0.004 µM.
Compound `CC(C)(C)OC(=O)/C=C\c1ccnc(N[C@@H]2CCCC[C@H]2N[C@H]2CCCN(c3ccc(C#N)cc3)C2)c1` [Example 108, (Z)-tert-butyl 3-(2-(((1R,2R)-2-(((S)-1-(4-cyanophenyl)piperidin-3-yl)amino)cyclohexyl)amino)pyridin-4-yl)acrylate] has an EC50 [1] of 0.021 µM.
For `CC(C)(C)OC(=O)/C=C/c1ccnc(N[C@@H]2CCCC[C@H]2N[C@H]2CCCN(c3ccc(C#N)cc3)C2)c1` [Example 109, (E)-tert-butyl 3-(2-(((1R,2R)-2-(((S)-1-(4-cyanophenyl)piperidin-3-yl)amino)cyclohexyl)amino)pyridin-4-yl)acrylate], the EC50 [1] was 0.119 µM.
`N#Cc1ccc(N2CCC[C@H](N[C@@H]3CCCC[C@H]3Nc3cc(/C=C\C(N)=O)ccn3)C2)cc1` [Example 110, (Z)-3-(2-(((1R,2R)-2-(((S)-1-(4-cyanophenyl)piperidin-3-yl)amino)cyclohexyl)amino)pyridin-4-yl)acrylamide] gave an EC50 [1] of 0.515 µM.
`CC(C)(C)C(=O)OCc1ccnc(N[C@@H]2CCCC[C@H]2N[C@H]2CCCN(c3ccc(C#N)cc3)C2)c1` [Example 111, (2-(((1R,2R)-2-(((S)-1-(4-cyanophenyl)piperidin-3-yl)amino)cyclohexyl)amino)pyridin-4-yl)methyl pivalate] was tested, and the EC50 [1] was 0.562 µM.
For `O=C(Nc1nncs1)c1ccnc(N[C@@H]2CCCC[C@H]2N[C@H]2CCCN(c3ccc(C(F)(F)F)cc3)C2)c1` [Example 112], the EC50 [1] was 0.59 µM.
`N#Cc1cnc(N[C@@H]2CCCC[C@H]2N[C@H]2CCCN(c3ccc(C(F)(F)F)cc3)C2)o1` [Example 113, 2-(((1R,2R)-2-(((S)-1-(4-(trifluoromethyl)phenyl)piperidin-3-yl)amino)cyclohexyl)amino)oxazole-5-carbonitrile] gave an EC50 [1] of 0.091 µM.
`N#Cc1ccnc(N[C@@H]2CCCC[C@H]2N[C@H]2CCCN(c3ccc(C(F)(F)F)cc3)C2)c1` [Example 114, 2-(((1R,2R)-2-(((S)-1-(4-(trifluoromethyl)phenyl)piperidin-3-yl)amino)cyclohexyl)amino)isonicotinonitrile, bis trifluoroacetic acid salt] was tested, and the EC50 [1] was 0.07 µM.
With `COC(=O)c1cccc(-c2cnc(N[C@@H]3CCCC[C@H]3N[C@H]3CCCN(c4ccc(C(F)(F)F)cc4)C3)o2)c1` [Example 115] the EC50 [2] was 0.067 µM.
`O=C(O)c1cccc(-c2cnc(N[C@@H]3CCCC[C@H]3N[C@H]3CCCN(c4ccc(C(F)(F)F)cc4)C3)o2)c1` [Example 116] showed an EC50 [2] of 0.886 µM.
`O=C(NC1CC1)c1cccc(-c2cnc(N[C@@H]3CCCC[C@H]3N[C@H]3CCCN(c4ccc(C(F)(F)F)cc4)C3)o2)c1` [Example 117] showed an EC50 [2] of 0.001 µM.
For `CC(C)(C)NC(=O)c1cccc(-c2cnc(N[C@@H]3CCCC[C@H]3N[C@H]3CCCN(c4ccc(C(F)(F)F)cc4)C3)o2)c1` [Example 118], the EC50 [2] was 0.038 µM.
In the case of `NC(=O)c1cccc(-c2ccnc(N[C@@H]3CCCC[C@H]3N[C@H]3CCCN(c4ccc(C(F)(F)F)cc4)C3)c2)c1` [Example 119], the EC50 [2] is reported as 0.004 µM.
With `C[C@]1(N[C@@H]2CCCC[C@H]2Nc2cc(-c3cccc(C(N)=O)c3)ccn2)CCCN(c2ccc(C(F)(F)F)cc2)C1` [Example 120] the EC50 [2] was 0.003 µM.
With `FC(F)(F)Oc1ccc(-n2nnc(N[C@@H]3CCCC[C@H]3N[C@H]3CCCN(c4ccc(C(F)(F)F)cc4)C3)n2)cc1` [Example 121] the EC50 [2] was 0.922 µM.
`FC(F)(F)c1ccc(N2CCC[C@H](N[C@@H]3CCCC[C@H]3Nc3ncc(-c4cccc(-c5nnn[nH]5)c4)o3)C2)cc1` [Example 122] was tested, and the EC50 [2] was 0.319 µM.
`CN(C)C(=O)c1cccc(-c2cnc(N[C@@H]3CCCC[C@H]3N[C@H]3CCCN(c4ccc(C(F)(F)F)cc4)C3)o2)c1` [Example 123] showed an EC50 [2] of 0.234 µM.
`CCNC(=O)c1cccc(-c2cnc(N[C@@H]3CCCC[C@H]3N[C@H]3CCCN(c4ccc(C(F)(F)F)cc4)C3)o2)c1` [Example 124] was tested, and the EC50 [2] was 0.002 µM.
`CC(C)NC(=O)c1cccc(-c2cnc(N[C@@H]3CCCC[C@H]3N[C@H]3CCCN(c4ccc(C(F)(F)F)cc4)C3)o2)c1` [Example 125] showed an EC50 [2] of 0.011 µM.
`CC(C)(O)c1cccc(-c2ccnc(N[C@@H]3CCCC[C@H]3N[C@H]3CCCN(c4ccc(C(F)(F)F)cc4)C3)c2)c1` [Example 126] was tested, and the EC50 [2] was 0.048 µM.
Work on `NCc1cccc(-c2ccnc(N[C@@H]3CCCC[C@H]3N[C@H]3CCCN(c4ccc(C(F)(F)F)cc4)C3)c2)c1` [Example 127] yielded an EC50 [2] of 0.079 µM.
Compound `CC(C)(C)NC(=O)c1cccc(-c2ccnc(N[C@@H]3CCCC[C@H]3N[C@H]3CCCN(c4ccc(C(F)(F)F)cc4)C3)c2)c1` [Example 128] has an EC50 [2] of 0.227 µM.
`OCc1cccc(-c2ccnc(N[C@@H]3CCCC[C@H]3N[C@H]3CCCN(c4ccc(C(F)(F)F)cc4)C3)c2)c1` [Example 129] showed an EC50 [2] of 0.041 µM.
In the case of `CNC(=O)c1cccc(-c2ccnc(N[C@@H]3CCCC[C@H]3N[C@H]3CCCN(c4ccc(C(F)(F)F)cc4)C3)c2)c1` [Example 130], the EC50 [2] is reported as 0.001 µM.
`CN(C)Cc1cccc(-c2ccnc(N[C@@H]3CCCC[C@H]3N[C@H]3CCCN(c4ccc(C(F)(F)F)cc4)C3)c2)c1` [Example 131] was tested, and the EC50 [2] was 1.11 µM.
Compound `COC(=O)Nc1cccc(-c2ccnc(N[C@@H]3CCCC[C@H]3N[C@H]3CCCN(c4ccc(C(F)(F)F)cc4)C3)c2)c1` [Example 132] has an EC50 [2] of 0.003 µM.
Work on `O=C1OCCN1c1cccc(-c2cnc(N[C@@H]3CCCC[C@H]3N[C@H]3CCCN(c4ccc(C(F)(F)F)cc4)C3)o2)c1` [Example 133] yielded an EC50 [2] of 0.008 µM.
`CC(C)OC(=O)Nc1cccc(-c2ccnc(N[C@@H]3CCCC[C@H]3N[C@H]3CCCN(c4ccc(C(F)(F)F)cc4)C3)c2)c1` [Example 134] gave an EC50 [2] of 0.013 µM.
`Oc1ccc(-c2ccnc(N[C@@H]3CCCC[C@H]3N[C@H]3CCCN(c4ccc(C(F)(F)F)cc4)C3)c2)cc1` [Example 135] gave an EC50 [2] of 0.027 µM.
With `CCOC(=O)Nc1cccc(-c2ccnc(N[C@@H]3CCCC[C@H]3N[C@H]3CCCN(c4ccc(C(F)(F)F)cc4)C3)c2)c1` [Example 136] the EC50 [2] was 0.002 µM.
`O=C(Nc1cccc(-c2ccnc(N[C@@H]3CCCC[C@H]3N[C@H]3CCCN(c4ccc(C(F)(F)F)cc4)C3)c2)c1)OCCF` [Example 137] gave an EC50 [2] of 0.002 µM.
`CCNC(=O)c1cccc(-c2ccnc(N[C@@H]3CCCC[C@H]3N[C@H]3CCCN(c4ccc(C(F)(F)F)cc4)C3)c2)c1` [Example 138] showed an EC50 [2] of 0.009 µM.
`CCCNC(=O)c1cccc(-c2ccnc(N[C@@H]3CCCC[C@H]3N[C@H]3CCCN(c4ccc(C(F)(F)F)cc4)C3)c2)c1` [Example 139] gave an EC50 [2] of 0.029 µM.
